Holding throughout (type): cell-based
What all share (conditions): 24 hours of compound treatment, 50 nM and 500 nM tested (concentration behind the class not stated)

In one assay the target is T1, IKZF3 (Homo sapiens, UniProt Q96SW2+Q9UKT9).
T1 construct: endogenous in cells; host or cells: hPBMCs (Milecell Biotechnologies)
Kind of assay: Western-blot assay of substrate protein degradation in hPBMCs, IKZF3.

For another assay, the target named is T2, CK1α (Homo sapiens, UniProt P48729+Q96SW2).
T2 construct: endogenous in cells; host or cells: hPBMCs (Milecell Biotechnologies)
T2 sequence (P48729 whole entry): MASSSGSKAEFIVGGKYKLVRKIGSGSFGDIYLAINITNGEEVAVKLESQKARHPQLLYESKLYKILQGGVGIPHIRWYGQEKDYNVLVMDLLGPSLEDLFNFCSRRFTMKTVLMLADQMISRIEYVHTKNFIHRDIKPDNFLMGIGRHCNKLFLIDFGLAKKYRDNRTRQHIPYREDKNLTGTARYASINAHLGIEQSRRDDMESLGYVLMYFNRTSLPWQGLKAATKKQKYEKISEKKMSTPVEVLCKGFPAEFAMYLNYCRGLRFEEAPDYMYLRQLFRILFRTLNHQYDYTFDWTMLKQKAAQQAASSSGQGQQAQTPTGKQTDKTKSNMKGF
T2 sequence (Q96SW2 whole entry): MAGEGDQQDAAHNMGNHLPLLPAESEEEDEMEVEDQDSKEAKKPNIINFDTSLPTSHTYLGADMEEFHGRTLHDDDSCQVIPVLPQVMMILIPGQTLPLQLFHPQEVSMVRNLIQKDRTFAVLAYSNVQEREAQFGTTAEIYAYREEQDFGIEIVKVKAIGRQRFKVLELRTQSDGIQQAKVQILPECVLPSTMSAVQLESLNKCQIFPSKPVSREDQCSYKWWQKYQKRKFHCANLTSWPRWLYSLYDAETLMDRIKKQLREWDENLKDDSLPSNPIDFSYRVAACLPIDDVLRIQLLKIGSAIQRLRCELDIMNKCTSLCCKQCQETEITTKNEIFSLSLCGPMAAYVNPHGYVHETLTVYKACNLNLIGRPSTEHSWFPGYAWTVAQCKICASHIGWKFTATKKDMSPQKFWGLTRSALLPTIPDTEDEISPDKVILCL
T2 sequence (Q16531 whole entry partner): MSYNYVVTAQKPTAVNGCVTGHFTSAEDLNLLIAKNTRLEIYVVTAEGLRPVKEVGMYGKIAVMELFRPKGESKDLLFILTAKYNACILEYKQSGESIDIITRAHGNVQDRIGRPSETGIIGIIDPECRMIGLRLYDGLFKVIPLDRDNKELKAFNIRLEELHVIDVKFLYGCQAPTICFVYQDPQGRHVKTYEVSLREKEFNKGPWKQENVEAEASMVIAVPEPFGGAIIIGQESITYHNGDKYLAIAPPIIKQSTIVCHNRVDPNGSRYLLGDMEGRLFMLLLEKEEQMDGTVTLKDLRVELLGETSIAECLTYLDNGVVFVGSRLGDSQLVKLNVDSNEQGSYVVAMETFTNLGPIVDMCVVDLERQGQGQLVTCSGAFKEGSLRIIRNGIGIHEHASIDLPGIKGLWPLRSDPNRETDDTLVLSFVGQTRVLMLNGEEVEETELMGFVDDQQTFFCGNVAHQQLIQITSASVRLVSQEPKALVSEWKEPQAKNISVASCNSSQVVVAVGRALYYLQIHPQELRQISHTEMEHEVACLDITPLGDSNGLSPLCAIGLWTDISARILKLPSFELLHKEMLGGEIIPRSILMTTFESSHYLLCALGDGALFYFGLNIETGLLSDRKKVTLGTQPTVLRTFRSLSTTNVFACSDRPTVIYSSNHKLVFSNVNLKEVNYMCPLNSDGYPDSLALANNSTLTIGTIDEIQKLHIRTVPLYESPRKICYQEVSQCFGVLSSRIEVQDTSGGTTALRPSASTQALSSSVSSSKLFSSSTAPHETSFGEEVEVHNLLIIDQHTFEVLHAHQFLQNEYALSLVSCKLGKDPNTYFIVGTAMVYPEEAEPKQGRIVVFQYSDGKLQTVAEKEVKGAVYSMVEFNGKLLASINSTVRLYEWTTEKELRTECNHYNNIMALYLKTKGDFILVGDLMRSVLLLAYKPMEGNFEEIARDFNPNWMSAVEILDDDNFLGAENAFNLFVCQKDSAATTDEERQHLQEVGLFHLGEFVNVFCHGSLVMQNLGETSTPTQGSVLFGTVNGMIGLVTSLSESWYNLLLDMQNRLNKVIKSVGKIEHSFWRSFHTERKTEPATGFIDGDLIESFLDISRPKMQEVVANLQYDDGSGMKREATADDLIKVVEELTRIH
As to the kind of experiment: Western-blot assay of substrate protein degradation in hPBMCs, CK1α.

For the next assay, the target named is T3, GSPT1 (Homo sapiens, UniProt P15170+Q96SW2).
T3 construct: endogenous in cells; host or cells: hPBMCs (Milecell Biotechnologies)
T3 sequence (P15170 whole entry): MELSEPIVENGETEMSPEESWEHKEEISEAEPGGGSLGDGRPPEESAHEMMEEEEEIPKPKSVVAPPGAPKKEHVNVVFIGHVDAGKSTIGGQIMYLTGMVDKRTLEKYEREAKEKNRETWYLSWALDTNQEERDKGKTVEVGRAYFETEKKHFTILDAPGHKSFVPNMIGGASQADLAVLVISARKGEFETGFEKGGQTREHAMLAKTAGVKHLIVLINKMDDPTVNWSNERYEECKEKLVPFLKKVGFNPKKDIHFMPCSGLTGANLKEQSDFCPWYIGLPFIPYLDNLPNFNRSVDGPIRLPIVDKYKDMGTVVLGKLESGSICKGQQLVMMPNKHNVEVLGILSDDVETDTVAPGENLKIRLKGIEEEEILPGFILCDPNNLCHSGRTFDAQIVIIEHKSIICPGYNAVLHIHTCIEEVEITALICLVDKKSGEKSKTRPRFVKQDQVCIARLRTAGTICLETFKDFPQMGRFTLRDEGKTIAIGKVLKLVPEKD
T3 sequence (Q96SW2 whole entry): as the sequence (Q96SW2 whole entry) above
T3 sequence (Q16531 whole entry partner): as the sequence (Q16531 whole entry partner) above
As to the kind of experiment: Western-blot assay of substrate protein degradation in hPBMCs, GSPT1.

The target of the next assay is T4, WEE1 (Homo sapiens, UniProt P30291+Q96SW2).
T4 construct: endogenous in cells; host or cells: hPBMCs (Milecell Biotechnologies)
T4 sequence (P30291 whole entry): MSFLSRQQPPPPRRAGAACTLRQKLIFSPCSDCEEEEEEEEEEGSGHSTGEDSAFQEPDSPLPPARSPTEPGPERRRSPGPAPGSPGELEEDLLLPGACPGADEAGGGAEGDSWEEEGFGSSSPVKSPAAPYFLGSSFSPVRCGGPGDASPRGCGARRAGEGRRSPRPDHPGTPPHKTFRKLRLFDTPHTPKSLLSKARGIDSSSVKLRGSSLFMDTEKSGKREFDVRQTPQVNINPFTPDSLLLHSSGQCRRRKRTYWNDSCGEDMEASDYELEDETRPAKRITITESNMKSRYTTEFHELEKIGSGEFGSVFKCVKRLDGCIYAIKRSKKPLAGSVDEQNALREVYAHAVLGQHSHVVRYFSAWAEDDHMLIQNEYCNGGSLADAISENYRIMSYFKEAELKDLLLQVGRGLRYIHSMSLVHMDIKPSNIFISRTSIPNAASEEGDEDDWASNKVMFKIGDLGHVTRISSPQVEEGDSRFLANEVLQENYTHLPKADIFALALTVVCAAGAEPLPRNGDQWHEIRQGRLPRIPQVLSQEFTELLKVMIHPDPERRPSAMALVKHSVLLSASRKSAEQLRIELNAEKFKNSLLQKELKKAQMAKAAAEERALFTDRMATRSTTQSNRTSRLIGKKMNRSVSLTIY
T4 sequence (Q96SW2 whole entry): as the sequence (Q96SW2 whole entry) above
T4 sequence (Q16531 whole entry partner): as the sequence (Q16531 whole entry partner) above
As to the kind of experiment: Western-blot assay of substrate protein degradation in hPBMCs, WEE1.

The target in a further assay is T5, IKZF2 (Homo sapiens, UniProt Q96SW2+Q9UKS7).
T5 construct: endogenous in cells; host or cells: hPBMCs (Milecell Biotechnologies)
As to the kind of experiment: Western-blot assay of substrate protein degradation in hPBMCs, IKZF2.

The next assay deals with T6, IKZF1 (Homo sapiens, UniProt Q13422+Q96SW2).
T6 construct: endogenous in cells; host or cells: hPBMCs (Milecell Biotechnologies)
T6 sequence (Q13422 whole entry): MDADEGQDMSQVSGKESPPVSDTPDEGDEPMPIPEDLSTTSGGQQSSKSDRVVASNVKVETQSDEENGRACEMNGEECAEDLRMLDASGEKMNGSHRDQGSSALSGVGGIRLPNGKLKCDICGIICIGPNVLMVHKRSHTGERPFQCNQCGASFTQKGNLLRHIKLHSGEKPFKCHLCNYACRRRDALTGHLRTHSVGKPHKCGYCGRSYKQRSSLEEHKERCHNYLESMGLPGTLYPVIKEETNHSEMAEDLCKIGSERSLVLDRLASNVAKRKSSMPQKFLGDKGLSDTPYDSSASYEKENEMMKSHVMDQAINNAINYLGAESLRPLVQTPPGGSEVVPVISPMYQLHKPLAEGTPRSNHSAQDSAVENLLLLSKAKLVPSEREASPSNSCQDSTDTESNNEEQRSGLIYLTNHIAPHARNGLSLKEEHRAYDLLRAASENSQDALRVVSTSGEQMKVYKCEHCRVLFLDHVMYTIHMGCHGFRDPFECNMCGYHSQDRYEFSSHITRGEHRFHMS
T6 sequence (Q96SW2 whole entry): as the sequence (Q96SW2 whole entry) above
T6 sequence (Q16531 whole entry partner): as the sequence (Q16531 whole entry partner) above
As to the kind of experiment: Western-blot assay of substrate protein degradation in hPBMCs, IKZF1.

This note sets out measurements from patent EP4745137A1 (Gluetacs Therapeutics (Shanghai) Co., Ltd., priority 2023, dated 2025).

T1 sequence (Q9UKT9 whole entry): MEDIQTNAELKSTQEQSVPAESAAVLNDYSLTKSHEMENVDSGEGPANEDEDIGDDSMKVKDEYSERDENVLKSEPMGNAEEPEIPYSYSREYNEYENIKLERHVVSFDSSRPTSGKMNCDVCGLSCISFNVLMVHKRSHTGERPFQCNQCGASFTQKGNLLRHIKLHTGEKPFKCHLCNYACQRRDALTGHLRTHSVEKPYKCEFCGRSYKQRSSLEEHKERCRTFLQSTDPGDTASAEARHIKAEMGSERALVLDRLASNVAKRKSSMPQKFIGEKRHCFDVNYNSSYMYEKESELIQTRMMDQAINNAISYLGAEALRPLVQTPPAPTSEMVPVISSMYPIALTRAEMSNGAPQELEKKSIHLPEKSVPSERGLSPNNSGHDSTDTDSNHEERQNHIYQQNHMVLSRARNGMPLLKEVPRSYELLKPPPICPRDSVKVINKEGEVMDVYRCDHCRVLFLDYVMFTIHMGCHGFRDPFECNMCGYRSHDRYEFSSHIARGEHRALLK
T1 sequence (Q96SW2 whole entry): as the sequence (Q96SW2 whole entry) above
T1 sequence (Q16531 whole entry partner): as the sequence (Q16531 whole entry partner) above

`O=C1CCC(N2C(=O)c3ccc(CN4CCN(c5cc(F)ccc5F)CC4)cc3C2=O)C(=O)N1` (stereo not drawn) [GT-06362, 5-((4-(2,5-difluorophenyl)piperazin-1-yl)methyl)-2-(2,6-dioxopiperidin-3-yl)isoindoline-1,3-dione]: on IKZF3, the “IKZF3 substrate protein remaining %” value is given as “B (80%< substrate protein remaining %≤ 100%)”. Further, on CK1α, the “CK1a substrate protein remaining %” value was “B (80%< substrate protein remaining %≤ 100%)”. Moreover, the “GSPT1 substrate protein remaining %” value at GSPT1 is reported as “A (0% ≤ substrate protein remaining % ≤ 80%)”. The “Weel substrate protein remaining %” value at WEE1 was “B (80%< substrate protein remaining %≤ 100%)”. For the same compound, on IKZF2, the “IKZF2 substrate protein remaining %” value is on record as “B (80%< substrate protein remaining %≤ 100%)”. The “IKZF 1 substrate protein remaining %” value at IKZF1 is recorded as “B (80%< substrate protein remaining %≤ 100%)”.
Consider `O=C1CCC(N2C(=O)c3ccc(CN4CCN(c5c(F)cccc5F)CC4)cc3C2=O)C(=O)N1` (stereo not drawn) [GT-06363, 5-((4-(2,6-difluorophenyl)piperazin-1-yl)methyl)-2-(2,6-dioxopiperidin-3-yl)isoindoline-1,3-dione], for which the “IKZF3 substrate protein remaining %” value on IKZF3 is “B (80%< substrate protein remaining %≤ 100%)”. Also, the “CK1a substrate protein remaining %” value at CK1α was “B (80%< substrate protein remaining %≤ 100%)”. In addition, the “GSPT1 substrate protein remaining %” value on GSPT1 was “A (0% ≤ substrate protein remaining % ≤ 80%)”. The “Weel substrate protein remaining %” value on WEE1 is listed as “B (80%< substrate protein remaining %≤ 100%)”. For the same compound, the “IKZF2 substrate protein remaining %” value at IKZF2 is listed as “B (80%< substrate protein remaining %≤ 100%)”. For the same compound, the “IKZF 1 substrate protein remaining %” value on IKZF1 is recorded as “A (0% ≤ substrate protein remaining % ≤ 80%)”.
As for `O=C1CCC(N2C(=O)c3ccc(CN4CCN(c5ccc(F)c(F)c5)CC4)cc3C2=O)C(=O)N1` (stereo not drawn) [GT-06364, 5-((4-(3,4-difluorophenyl)piperazin-1-yl)methyl)-2-(2,6-dioxopiperidin-3-yl)isoindoline-1,3-dione], the “IKZF3 substrate protein remaining %” value on IKZF3 is “B (80%< substrate protein remaining %≤ 100%)”. The “CK1a substrate protein remaining %” value on CK1α is reported as “B (80%< substrate protein remaining %≤ 100%)”. Further, at GSPT1, the “GSPT1 substrate protein remaining %” value is “A (0% ≤ substrate protein remaining % ≤ 80%)”. In addition, the “Weel substrate protein remaining %” value at WEE1 was “B (80%< substrate protein remaining %≤ 100%)”. The “IKZF2 substrate protein remaining %” value at IKZF2 is “B (80%< substrate protein remaining %≤ 100%)”. For the same compound, at IKZF1, the “IKZF 1 substrate protein remaining %” value is listed as “B (80%< substrate protein remaining %≤ 100%)”.
Take `O=C1CCC(N2C(=O)c3ccc(CN4CCN(c5cc(F)cc(F)c5)CC4)cc3C2=O)C(=O)N1` (stereo not drawn) [GT-06365, 5-((4-(3,5-difluorophenyl)piperazin-1-yl)methyl)-2-(2,6-dioxopiperidin-3-yl)isoindoline-1,3-dione]: the “IKZF3 substrate protein remaining %” value on IKZF3 is reported as “B (80%< substrate protein remaining %≤ 100%)”. Moreover, the “CK1a substrate protein remaining %” value at CK1α is recorded as “B (80%< substrate protein remaining %≤ 100%)”. On GSPT1, the “GSPT1 substrate protein remaining %” value was “A (0% ≤ substrate protein remaining % ≤ 80%)”. Besides, the “Weel substrate protein remaining %” value at WEE1 is on record as “B (80%< substrate protein remaining %≤ 100%)”. Also, the “IKZF2 substrate protein remaining %” value at IKZF2 is recorded as “B (80%< substrate protein remaining %≤ 100%)”. Moreover, at IKZF1, the “IKZF 1 substrate protein remaining %” value is “B (80%< substrate protein remaining %≤ 100%)”.
In the case of `Cc1ccc(N2CCN(Cc3ccc4c(c3)C(=O)N(C3CCC(=O)NC3=O)C4=O)CC2)c(C)c1` (stereo not drawn) [GT-06366, 5-((4-(2,4-dimethylphenyl)piperazin-1-yl)methyl)-2-(2,6-dioxopiperidin-3-yl)isoindoline-1,3-dione], the “IKZF3 substrate protein remaining %” value on IKZF3 is on record as “A (0% ≤ substrate protein remaining % ≤ 80%)”. For the same compound, the “CK1a substrate protein remaining %” value on CK1α is on record as “B (80%< substrate protein remaining %≤ 100%)”. Further, at GSPT1, the “GSPT1 substrate protein remaining %” value is given as “A (0% ≤ substrate protein remaining % ≤ 80%)”. For the same compound, on WEE1, the “Weel substrate protein remaining %” value is “B (80%< substrate protein remaining %≤ 100%)”. Besides, on IKZF2, the “IKZF2 substrate protein remaining %” value was “A (0% ≤ substrate protein remaining % ≤ 80%)”. For the same compound, on IKZF1, the “IKZF 1 substrate protein remaining %” value is given as “B (80%< substrate protein remaining %≤ 100%)”.
For `Cc1ccc(Cl)cc1N1CCN(Cc2ccc3c(c2)C(=O)N(C2CCC(=O)NC2=O)C3=O)CC1` (stereo not drawn) [GT-06367, 5-((4-(5-chloro-2-methylphenyl)piperazin-1-yl)methyl)-2-(2,6-dioxopiperidin-3-yl)isoindoline-1,3-dione], on IKZF3, the “IKZF3 substrate protein remaining %” value is “A (0% ≤ substrate protein remaining % ≤ 80%)”. Moreover, the “CK1a substrate protein remaining %” value at CK1α is given as “B (80%< substrate protein remaining %≤ 100%)”. Besides, the “GSPT1 substrate protein remaining %” value at GSPT1 is on record as “A (0% ≤ substrate protein remaining % ≤ 80%)”. Besides, at WEE1, the “Weel substrate protein remaining %” value is “A (0% ≤ substrate protein remaining % ≤ 80%)”. Moreover, the “IKZF2 substrate protein remaining %” value on IKZF2 is on record as “A (0% ≤ substrate protein remaining % ≤ 80%)”. Further, the “IKZF 1 substrate protein remaining %” value on IKZF1 is given as “B (80%< substrate protein remaining %≤ 100%)”.
`O=C1CCC(N2C(=O)c3ccc(CN4CCC(c5ccccc5)CC4)cc3C2=O)C(=O)N1` (stereo not drawn) [GT-06368, 2-(2,6-dioxopiperidin-3-yl)-5-((4-phenylpiperidin-1-yl)methyl)isoindoline-1,3-dione]: on IKZF3, the “IKZF3 substrate protein remaining %” value was “A (0% ≤ substrate protein remaining % ≤ 80%)”. For the same compound, the “CK1a substrate protein remaining %” value on CK1α is reported as “A (0% ≤ substrate protein remaining % ≤ 80%)”. In addition, the “GSPT1 substrate protein remaining %” value on GSPT1 is on record as “A (0% ≤ substrate protein remaining % ≤ 80%)”. Besides, at WEE1, the “Weel substrate protein remaining %” value is reported as “A (0% ≤ substrate protein remaining % ≤ 80%)”. Moreover, on IKZF2, the “IKZF2 substrate protein remaining %” value is recorded as “A (0% ≤ substrate protein remaining % ≤ 80%)”. Further, the “IKZF 1 substrate protein remaining %” value at IKZF1 is given as “B (80%< substrate protein remaining %≤ 100%)”.
As to `O=C1CCC(N2C(=O)c3ccc(CN4CCC(c5cccc(Br)c5)CC4)cc3C2=O)C(=O)N1` (stereo not drawn) [GT-06369, 5-((4-(3-bromophenyl)piperidin-1-yl)methyl)-2-(2,6-dioxopiperidin-3-yl)isoindoline-1,3-dione], the “IKZF3 substrate protein remaining %” value at IKZF3 is on record as “A (0% ≤ substrate protein remaining % ≤ 80%)”. Besides, at CK1α, the “CK1a substrate protein remaining %” value is listed as “A (0% ≤ substrate protein remaining % ≤ 80%)”. For the same compound, the “GSPT1 substrate protein remaining %” value at GSPT1 is “A (0% ≤ substrate protein remaining % ≤ 80%)”. Besides, the “Weel substrate protein remaining %” value at WEE1 is on record as “A (0% ≤ substrate protein remaining % ≤ 80%)”. At IKZF2, the “IKZF2 substrate protein remaining %” value is “A (0% ≤ substrate protein remaining % ≤ 80%)”. Moreover, at IKZF1, the “IKZF 1 substrate protein remaining %” value is listed as “A (0% ≤ substrate protein remaining % ≤ 80%)”.
As for `O=C1CCC(N2C(=O)c3ccc(CN4CCC(c5ccc(Br)cc5)CC4)cc3C2=O)C(=O)N1` (stereo not drawn) [GT-06370, 5-((4-(4-bromophenyl)piperidin-1-yl)methyl)-2-(2,6-dioxopiperidin-3-yl)isoindoline-1,3-dione], the “IKZF3 substrate protein remaining %” value at IKZF3 is on record as “A (0% ≤ substrate protein remaining % ≤ 80%)”. Besides, at CK1α, the “CK1a substrate protein remaining %” value is listed as “A (0% ≤ substrate protein remaining % ≤ 80%)”. Further, the “GSPT1 substrate protein remaining %” value on GSPT1 is given as “A (0% ≤ substrate protein remaining % ≤ 80%)”. Also, on WEE1, the “Weel substrate protein remaining %” value is “A (0% ≤ substrate protein remaining % ≤ 80%)”. Also, the “IKZF2 substrate protein remaining %” value on IKZF2 is “A (0% ≤ substrate protein remaining % ≤ 80%)”. Moreover, on IKZF1, the “IKZF 1 substrate protein remaining %” value is reported as “B (80%< substrate protein remaining %≤ 100%)”.
Take `O=C1CCC(N2C(=O)c3ccc(CN4CCC(c5ccccc5Cl)CC4)cc3C2=O)C(=O)N1` (stereo not drawn) [GT-06371, 5-((4-(2-chlorophenyl)piperidin-1-yl)methyl)-2-(2,6-dioxopiperidin-3-yl)isoindoline-1,3-dione]: at IKZF3, the “IKZF3 substrate protein remaining %” value was “B (80%< substrate protein remaining %≤ 100%)”. The “CK1a substrate protein remaining %” value on CK1α is on record as “B (80%< substrate protein remaining %≤ 100%)”. Besides, the “GSPT1 substrate protein remaining %” value on GSPT1 is given as “A (0% ≤ substrate protein remaining % ≤ 80%)”. In addition, on WEE1, the “Weel substrate protein remaining %” value was “B (80%< substrate protein remaining %≤ 100%)”. For the same compound, the “IKZF2 substrate protein remaining %” value at IKZF2 was “B (80%< substrate protein remaining %≤ 100%)”. The “IKZF 1 substrate protein remaining %” value on IKZF1 is “A (0% ≤ substrate protein remaining % ≤ 80%)”.
Turning to `O=C1CCC(N2C(=O)c3ccc(CN4CCC(c5ccc(Cl)cc5)CC4)cc3C2=O)C(=O)N1` (stereo not drawn) [GT-06372, 5-((4-(4-chlorophenyl)piperidin-1-yl)methyl)-2-(2,6-dioxopiperidin-3-yl)isoindoline-1,3-dione], the “IKZF3 substrate protein remaining %” value at IKZF3 is listed as “B (80%< substrate protein remaining %≤ 100%)”. Also, at CK1α, the “CK1a substrate protein remaining %” value was “B (80%< substrate protein remaining %≤ 100%)”. Further, on GSPT1, the “GSPT1 substrate protein remaining %” value is recorded as “A (0% ≤ substrate protein remaining % ≤ 80%)”. At WEE1, the “Weel substrate protein remaining %” value was “A (0% ≤ substrate protein remaining % ≤ 80%)”. Also, at IKZF2, the “IKZF2 substrate protein remaining %” value is “A (0% ≤ substrate protein remaining % ≤ 80%)”. The “IKZF 1 substrate protein remaining %” value at IKZF1 was “A (0% ≤ substrate protein remaining % ≤ 80%)”.
Consider `O=C1CCC(N2C(=O)c3ccc(CN4CCC(c5ccccc5F)CC4)cc3C2=O)C(=O)N1` (stereo not drawn) [GT-06373, 2-(2,6-dioxopiperidin-3-yl)-5-((4-(2-fluorophenyl)piperidin-1-yl)methyl)isoindoline-1,3-dione], for which the “IKZF3 substrate protein remaining %” value on IKZF3 is given as “B (80%< substrate protein remaining %≤ 100%)”. Also, the “CK1a substrate protein remaining %” value at CK1α was “B (80%< substrate protein remaining %≤ 100%)”. Moreover, at GSPT1, the “GSPT1 substrate protein remaining %” value is given as “A (0% ≤ substrate protein remaining % ≤ 80%)”. The “Weel substrate protein remaining %” value on WEE1 was “A (0% ≤ substrate protein remaining % ≤ 80%)”. Further, the “IKZF2 substrate protein remaining %” value on IKZF2 is “A (0% ≤ substrate protein remaining % ≤ 80%)”. Further, the “IKZF 1 substrate protein remaining %” value at IKZF1 is “A (0% ≤ substrate protein remaining % ≤ 80%)”.
